Reference: ChEMBL document CHEMBL5442175, “EUbOPEN Chemogenomics Library - PDSP Secondary Binding” (2024)

Experiments:
[1] = molecular target: T1, Muscarinic acetylcholine receptor M2 (Homo sapiens, UniProt P08172); test: (§1) PDSP Secondary Binding target: CHRM2 - Compounds are tested at 10 uM concentration, plate are incubated at room temperature in the dark for 90 minutes. Reaction are stopped by vacuum filtration onto 0.3% polyethyleneimine soaked filter mats using Filtermate harvester. Scintillation cocktail is then melted onto microwave-dried filters on a hot plate and the radio activity is counted in Microbia counter.
T1 sequence (P08172 whole entry): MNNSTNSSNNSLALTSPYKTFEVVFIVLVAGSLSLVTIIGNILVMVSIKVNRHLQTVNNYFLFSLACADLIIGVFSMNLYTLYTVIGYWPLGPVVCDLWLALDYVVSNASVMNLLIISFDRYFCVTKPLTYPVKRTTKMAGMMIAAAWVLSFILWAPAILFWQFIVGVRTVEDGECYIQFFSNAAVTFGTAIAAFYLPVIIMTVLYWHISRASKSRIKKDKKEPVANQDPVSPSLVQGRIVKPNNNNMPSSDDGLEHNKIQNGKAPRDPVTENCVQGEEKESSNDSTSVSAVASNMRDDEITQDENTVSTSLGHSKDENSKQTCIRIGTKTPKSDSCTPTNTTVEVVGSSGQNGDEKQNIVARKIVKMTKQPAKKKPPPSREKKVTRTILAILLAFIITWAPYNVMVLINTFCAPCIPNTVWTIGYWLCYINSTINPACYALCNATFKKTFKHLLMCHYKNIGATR

[2] = molecular target: Histamine H3 receptor (Homo sapiens, UniProt Q9Y5N1); test: as §1, with “HRH3” for “CHRM2”
Chain of Histamine H3 receptor (Q9Y5N1 whole entry): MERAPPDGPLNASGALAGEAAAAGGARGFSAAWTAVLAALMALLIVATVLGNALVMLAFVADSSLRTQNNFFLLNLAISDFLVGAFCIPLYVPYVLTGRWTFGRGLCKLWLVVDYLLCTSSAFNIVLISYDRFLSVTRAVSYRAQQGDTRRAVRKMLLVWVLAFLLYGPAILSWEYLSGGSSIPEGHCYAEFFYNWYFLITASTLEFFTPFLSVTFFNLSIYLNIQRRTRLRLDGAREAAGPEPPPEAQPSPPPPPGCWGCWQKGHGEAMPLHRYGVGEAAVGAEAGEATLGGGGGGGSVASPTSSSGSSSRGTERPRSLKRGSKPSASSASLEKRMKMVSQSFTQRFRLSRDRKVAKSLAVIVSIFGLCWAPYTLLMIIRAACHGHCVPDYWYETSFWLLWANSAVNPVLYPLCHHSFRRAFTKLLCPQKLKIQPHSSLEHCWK

[3] = molecular target: T2, Muscarinic acetylcholine receptor M1 (Homo sapiens, UniProt P11229); test: as §1, with “CHRM1” for “CHRM2”
T2 sequence (P11229 whole entry): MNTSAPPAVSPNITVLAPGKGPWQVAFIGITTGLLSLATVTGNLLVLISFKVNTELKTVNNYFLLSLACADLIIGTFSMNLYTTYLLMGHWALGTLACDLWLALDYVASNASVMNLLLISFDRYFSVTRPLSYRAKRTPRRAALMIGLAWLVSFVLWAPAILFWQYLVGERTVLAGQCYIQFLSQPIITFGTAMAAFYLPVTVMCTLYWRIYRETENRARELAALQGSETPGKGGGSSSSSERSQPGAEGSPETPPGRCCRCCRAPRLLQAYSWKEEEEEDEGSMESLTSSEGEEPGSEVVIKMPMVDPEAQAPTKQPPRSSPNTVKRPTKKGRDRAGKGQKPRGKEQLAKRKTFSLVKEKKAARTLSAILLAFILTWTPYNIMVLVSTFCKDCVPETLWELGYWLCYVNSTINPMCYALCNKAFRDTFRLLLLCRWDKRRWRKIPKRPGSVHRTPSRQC

[4] = molecular target: Sodium-dependent dopamine transporter (Homo sapiens, UniProt Q01959); test: as §1, with “SLC6A3” for “CHRM2”
Chain of Sodium-dependent dopamine transporter (Q01959 whole entry): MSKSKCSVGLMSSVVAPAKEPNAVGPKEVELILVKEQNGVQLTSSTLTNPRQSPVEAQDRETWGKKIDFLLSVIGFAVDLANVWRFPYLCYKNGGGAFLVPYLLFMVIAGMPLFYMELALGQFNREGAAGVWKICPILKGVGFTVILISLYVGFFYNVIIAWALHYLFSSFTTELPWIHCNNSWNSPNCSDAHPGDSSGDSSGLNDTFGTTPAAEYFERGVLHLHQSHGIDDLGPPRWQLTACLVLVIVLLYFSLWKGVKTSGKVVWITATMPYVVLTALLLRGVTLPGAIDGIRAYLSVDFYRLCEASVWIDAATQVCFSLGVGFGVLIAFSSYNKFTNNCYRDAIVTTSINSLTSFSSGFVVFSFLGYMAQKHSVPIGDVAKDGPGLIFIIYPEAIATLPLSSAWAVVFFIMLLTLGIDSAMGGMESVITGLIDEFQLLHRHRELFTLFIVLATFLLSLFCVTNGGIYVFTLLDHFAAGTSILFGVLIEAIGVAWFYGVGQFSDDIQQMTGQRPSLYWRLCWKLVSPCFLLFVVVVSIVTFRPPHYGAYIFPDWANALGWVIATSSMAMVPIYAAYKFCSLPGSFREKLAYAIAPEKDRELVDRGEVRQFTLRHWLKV

[5] = molecular target: T3, Alpha-2C adrenergic receptor (Homo sapiens, UniProt P18825); test: as §1, with “ADRA2C” for “CHRM2”
T3 sequence (P18825 whole entry): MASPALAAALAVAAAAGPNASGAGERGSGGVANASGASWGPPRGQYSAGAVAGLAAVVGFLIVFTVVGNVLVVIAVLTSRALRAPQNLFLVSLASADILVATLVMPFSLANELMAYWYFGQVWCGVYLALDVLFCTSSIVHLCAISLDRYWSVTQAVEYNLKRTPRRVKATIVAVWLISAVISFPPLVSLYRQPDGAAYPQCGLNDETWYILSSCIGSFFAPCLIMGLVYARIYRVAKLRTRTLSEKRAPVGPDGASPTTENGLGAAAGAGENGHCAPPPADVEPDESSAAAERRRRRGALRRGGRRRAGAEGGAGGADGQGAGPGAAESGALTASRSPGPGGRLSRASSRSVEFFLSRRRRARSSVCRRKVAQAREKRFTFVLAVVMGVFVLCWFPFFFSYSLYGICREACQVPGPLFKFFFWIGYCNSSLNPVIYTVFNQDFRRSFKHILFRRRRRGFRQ

[6] = molecular target: T4, Muscarinic acetylcholine receptor M5 (Homo sapiens, UniProt P08912); test: as §1, with “CHRM5” for “CHRM2”
T4 sequence (P08912 whole entry): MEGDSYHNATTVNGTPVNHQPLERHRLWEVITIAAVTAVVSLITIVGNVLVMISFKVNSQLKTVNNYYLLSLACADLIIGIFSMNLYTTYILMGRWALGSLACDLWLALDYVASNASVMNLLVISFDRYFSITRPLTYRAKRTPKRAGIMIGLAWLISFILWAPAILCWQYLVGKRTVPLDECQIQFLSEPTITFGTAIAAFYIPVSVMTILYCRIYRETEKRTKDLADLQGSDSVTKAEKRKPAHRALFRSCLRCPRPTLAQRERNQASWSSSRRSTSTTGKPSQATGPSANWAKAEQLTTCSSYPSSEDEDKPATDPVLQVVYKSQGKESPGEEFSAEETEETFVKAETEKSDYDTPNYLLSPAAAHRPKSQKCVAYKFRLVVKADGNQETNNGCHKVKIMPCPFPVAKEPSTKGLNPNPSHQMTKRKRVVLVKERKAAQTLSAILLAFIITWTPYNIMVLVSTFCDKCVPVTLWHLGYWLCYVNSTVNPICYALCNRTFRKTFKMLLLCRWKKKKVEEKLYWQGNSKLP

[7] = molecular target: Kappa-type opioid receptor (Homo sapiens, UniProt P41145); test: as §1, with “OPRK1” for “CHRM2”
Chain of Kappa-type opioid receptor (P41145 whole entry): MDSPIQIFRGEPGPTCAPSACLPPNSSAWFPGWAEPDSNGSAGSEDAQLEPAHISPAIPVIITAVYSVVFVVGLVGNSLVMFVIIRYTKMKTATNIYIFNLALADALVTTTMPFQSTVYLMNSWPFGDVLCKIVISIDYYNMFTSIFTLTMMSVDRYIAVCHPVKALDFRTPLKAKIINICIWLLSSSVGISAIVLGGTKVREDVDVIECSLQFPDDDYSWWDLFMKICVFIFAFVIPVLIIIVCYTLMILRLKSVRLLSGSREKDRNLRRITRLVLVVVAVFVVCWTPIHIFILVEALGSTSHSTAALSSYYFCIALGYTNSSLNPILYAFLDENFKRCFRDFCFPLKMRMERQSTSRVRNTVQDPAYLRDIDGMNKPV

[8] = molecular target: Sigma non-opioid intracellular receptor 1 (Homo sapiens, UniProt Q99720); test: as §1, with “SIGMAR1” for “CHRM2”
Chain of Sigma non-opioid intracellular receptor 1 (Q99720 whole entry): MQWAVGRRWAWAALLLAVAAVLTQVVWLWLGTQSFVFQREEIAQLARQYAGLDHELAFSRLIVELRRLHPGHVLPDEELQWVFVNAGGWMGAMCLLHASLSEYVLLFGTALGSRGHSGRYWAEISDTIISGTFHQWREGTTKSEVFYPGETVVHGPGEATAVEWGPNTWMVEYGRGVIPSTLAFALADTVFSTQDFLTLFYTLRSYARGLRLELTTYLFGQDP

[9] = molecular target: Sigma intracellular receptor 2 (Homo sapiens, UniProt Q5BJF2); test: as §1, with “TMEM97” for “CHRM2”
Chain of Sigma intracellular receptor 2 (Q5BJF2 whole entry): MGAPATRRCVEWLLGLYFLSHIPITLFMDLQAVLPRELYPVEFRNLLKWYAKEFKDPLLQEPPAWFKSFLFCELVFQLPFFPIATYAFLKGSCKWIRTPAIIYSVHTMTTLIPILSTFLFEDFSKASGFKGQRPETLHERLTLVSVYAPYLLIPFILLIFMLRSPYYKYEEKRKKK

[10] = molecular target: Sodium-dependent noradrenaline transporter (Homo sapiens, UniProt P23975); test: as §1, with “SLC6A2” for “CHRM2”
Chain of Sodium-dependent noradrenaline transporter (P23975 whole entry): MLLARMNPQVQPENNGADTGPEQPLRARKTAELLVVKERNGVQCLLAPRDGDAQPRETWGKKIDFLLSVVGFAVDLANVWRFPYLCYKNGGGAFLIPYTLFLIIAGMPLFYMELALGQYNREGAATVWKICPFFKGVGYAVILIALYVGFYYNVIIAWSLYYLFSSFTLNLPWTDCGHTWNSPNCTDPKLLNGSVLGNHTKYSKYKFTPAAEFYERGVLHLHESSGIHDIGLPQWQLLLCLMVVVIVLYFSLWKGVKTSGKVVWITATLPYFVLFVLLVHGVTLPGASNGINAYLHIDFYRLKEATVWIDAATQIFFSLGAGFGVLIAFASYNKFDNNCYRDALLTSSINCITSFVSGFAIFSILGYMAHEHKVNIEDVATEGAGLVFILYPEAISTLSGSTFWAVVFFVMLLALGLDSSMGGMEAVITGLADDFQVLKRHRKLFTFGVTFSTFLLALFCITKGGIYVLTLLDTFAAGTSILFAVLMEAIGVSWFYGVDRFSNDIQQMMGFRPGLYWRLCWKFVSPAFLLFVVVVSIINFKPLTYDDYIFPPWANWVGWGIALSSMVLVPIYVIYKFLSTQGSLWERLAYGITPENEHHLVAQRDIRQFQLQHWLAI

[11] = molecular target: 5-hydroxytryptamine receptor 1B (Homo sapiens, UniProt P28222); test: as §1, with “HTR1B” for “CHRM2”
Chain of 5-hydroxytryptamine receptor 1B (P28222 whole entry): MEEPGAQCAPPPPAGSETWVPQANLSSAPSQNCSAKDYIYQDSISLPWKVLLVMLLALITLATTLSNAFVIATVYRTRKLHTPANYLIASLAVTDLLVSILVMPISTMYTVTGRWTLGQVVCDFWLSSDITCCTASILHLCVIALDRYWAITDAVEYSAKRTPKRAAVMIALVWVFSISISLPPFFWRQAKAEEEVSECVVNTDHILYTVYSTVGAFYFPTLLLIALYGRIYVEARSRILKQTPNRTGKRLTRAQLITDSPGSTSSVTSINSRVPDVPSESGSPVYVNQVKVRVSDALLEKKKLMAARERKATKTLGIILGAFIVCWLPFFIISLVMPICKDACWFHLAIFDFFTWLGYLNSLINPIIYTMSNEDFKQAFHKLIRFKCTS

[12] = molecular target: T5, 5-hydroxytryptamine receptor 3A (Homo sapiens, UniProt P46098); test: as §1, with “HTR3A” for “CHRM2”
T5 sequence (P46098 whole entry): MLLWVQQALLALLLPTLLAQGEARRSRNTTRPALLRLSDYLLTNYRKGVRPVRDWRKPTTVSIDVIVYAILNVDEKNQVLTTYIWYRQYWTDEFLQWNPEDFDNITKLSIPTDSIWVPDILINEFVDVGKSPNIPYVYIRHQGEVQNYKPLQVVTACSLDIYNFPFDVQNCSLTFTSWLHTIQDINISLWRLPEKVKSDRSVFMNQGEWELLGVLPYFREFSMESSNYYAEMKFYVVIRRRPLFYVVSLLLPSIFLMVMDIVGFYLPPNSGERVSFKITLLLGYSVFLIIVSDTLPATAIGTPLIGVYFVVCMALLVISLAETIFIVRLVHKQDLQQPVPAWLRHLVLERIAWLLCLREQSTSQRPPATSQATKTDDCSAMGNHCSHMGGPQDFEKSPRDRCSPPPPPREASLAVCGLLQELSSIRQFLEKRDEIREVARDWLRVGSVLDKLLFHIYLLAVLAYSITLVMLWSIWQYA

[13] = molecular target: 5-hydroxytryptamine receptor 1D (Homo sapiens, UniProt P28221); test: as §1, with “HTR1D” for “CHRM2”
Chain of 5-hydroxytryptamine receptor 1D (P28221 whole entry): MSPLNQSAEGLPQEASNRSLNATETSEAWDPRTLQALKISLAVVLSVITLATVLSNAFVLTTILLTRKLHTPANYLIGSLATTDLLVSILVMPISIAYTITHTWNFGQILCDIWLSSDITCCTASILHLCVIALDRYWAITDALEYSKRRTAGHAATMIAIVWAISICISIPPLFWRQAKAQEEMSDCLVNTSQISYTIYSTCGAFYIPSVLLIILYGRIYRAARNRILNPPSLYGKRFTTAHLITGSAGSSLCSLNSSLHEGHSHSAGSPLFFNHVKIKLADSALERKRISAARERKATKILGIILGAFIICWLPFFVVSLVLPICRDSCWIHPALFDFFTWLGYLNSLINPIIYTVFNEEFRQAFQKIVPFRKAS

[14] = molecular target: T6, Alpha-1A adrenergic receptor (Homo sapiens, UniProt P35348); test: as §1, with “ADRA1A” for “CHRM2”
T6 sequence (P35348 whole entry): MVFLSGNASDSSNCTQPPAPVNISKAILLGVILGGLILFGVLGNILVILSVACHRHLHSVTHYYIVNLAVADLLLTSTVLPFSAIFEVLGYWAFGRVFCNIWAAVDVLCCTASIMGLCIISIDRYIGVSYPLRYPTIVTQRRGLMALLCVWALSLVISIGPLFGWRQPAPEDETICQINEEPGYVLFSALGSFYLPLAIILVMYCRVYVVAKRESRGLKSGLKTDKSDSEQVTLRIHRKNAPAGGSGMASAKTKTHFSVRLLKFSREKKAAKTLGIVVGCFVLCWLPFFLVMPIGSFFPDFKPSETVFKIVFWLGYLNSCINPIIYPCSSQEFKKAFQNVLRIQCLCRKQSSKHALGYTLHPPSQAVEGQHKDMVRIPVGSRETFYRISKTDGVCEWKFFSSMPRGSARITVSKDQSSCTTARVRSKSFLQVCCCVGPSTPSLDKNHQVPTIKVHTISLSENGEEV

[15] = molecular target: 5-hydroxytryptamine receptor 7 (Homo sapiens, UniProt P34969); test: as §1, with “HTR7” for “CHRM2”
Chain of 5-hydroxytryptamine receptor 7 (P34969 whole entry): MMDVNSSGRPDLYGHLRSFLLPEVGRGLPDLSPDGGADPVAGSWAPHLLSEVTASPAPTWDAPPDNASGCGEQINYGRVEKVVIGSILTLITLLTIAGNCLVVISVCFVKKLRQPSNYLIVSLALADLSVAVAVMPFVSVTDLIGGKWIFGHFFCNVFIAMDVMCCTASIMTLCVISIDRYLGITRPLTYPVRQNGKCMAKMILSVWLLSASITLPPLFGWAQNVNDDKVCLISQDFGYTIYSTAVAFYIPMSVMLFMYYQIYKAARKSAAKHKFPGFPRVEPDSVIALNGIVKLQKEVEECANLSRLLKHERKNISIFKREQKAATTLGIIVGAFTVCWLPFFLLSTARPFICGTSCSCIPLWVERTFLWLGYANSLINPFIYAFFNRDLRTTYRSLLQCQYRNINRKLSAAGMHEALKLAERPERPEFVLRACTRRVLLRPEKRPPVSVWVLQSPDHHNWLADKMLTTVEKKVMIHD

[16] = molecular target: T7, Alpha-1B adrenergic receptor (Homo sapiens, UniProt P35368); test: as §1, with “ADRA1B” for “CHRM2”
T7 sequence (P35368 whole entry): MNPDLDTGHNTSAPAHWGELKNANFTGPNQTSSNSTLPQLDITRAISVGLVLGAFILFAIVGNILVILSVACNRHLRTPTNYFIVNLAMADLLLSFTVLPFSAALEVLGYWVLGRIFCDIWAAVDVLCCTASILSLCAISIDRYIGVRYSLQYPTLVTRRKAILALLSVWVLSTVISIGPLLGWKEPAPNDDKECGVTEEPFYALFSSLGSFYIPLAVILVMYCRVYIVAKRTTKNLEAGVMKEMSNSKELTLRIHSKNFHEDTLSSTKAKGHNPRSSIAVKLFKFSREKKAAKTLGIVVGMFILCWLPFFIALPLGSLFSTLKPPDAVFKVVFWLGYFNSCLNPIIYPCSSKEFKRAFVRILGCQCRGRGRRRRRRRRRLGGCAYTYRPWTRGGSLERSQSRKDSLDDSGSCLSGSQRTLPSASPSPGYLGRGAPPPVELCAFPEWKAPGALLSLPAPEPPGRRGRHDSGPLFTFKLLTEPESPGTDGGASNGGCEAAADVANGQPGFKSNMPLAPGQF

[17] = molecular target: Histamine H1 receptor (Homo sapiens, UniProt P35367); test: as §1, with “HRH1” for “CHRM2”
Chain of Histamine H1 receptor (P35367 whole entry): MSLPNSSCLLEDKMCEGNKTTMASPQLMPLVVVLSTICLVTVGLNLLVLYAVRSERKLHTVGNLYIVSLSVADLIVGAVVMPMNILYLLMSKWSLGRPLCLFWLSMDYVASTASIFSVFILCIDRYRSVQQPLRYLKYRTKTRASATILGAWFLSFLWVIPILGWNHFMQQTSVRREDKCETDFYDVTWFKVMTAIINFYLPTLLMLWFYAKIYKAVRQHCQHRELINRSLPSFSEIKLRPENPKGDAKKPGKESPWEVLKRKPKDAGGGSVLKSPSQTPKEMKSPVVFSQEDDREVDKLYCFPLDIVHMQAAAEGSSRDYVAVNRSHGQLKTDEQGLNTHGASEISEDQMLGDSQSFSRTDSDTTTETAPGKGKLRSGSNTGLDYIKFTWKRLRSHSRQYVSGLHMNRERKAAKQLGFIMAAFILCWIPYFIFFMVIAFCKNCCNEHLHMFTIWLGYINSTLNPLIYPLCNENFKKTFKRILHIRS

[18] = molecular target: T8, Alpha-2A adrenergic receptor (Homo sapiens, UniProt P08913); test: as §1, with “ADRA2A” for “CHRM2”
T8 sequence (P08913 whole entry): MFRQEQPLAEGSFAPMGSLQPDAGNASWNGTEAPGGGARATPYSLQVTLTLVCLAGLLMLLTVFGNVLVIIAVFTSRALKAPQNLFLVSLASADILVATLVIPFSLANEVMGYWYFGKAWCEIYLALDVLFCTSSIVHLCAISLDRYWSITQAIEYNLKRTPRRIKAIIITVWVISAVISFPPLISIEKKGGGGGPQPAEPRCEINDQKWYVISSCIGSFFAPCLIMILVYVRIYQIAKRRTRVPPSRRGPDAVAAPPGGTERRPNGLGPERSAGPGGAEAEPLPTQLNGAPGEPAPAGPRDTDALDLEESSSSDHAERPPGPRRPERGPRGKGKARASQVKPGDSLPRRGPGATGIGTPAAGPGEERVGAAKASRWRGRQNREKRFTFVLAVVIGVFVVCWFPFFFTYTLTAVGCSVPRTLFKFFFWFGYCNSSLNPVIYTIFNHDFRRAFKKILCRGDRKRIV

[19] = molecular target: 5-hydroxytryptamine receptor 2A (Homo sapiens, UniProt P28223); test: as §1, with “HTR2A” for “CHRM2”
Chain of 5-hydroxytryptamine receptor 2A (P28223 whole entry): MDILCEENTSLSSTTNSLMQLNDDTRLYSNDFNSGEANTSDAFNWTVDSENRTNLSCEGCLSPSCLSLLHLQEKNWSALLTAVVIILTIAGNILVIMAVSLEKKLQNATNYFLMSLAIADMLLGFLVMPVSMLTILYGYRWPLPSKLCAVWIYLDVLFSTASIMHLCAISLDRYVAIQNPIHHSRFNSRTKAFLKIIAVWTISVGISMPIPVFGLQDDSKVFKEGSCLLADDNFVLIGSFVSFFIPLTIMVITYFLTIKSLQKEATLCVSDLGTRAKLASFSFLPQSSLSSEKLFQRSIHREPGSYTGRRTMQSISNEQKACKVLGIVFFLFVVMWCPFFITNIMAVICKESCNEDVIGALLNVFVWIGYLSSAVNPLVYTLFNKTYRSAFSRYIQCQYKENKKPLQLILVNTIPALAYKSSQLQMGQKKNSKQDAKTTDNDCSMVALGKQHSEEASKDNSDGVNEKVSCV

| Ki [1] | Ki [2] | Ki [3] | Ki [5] | Ki [6] | Ki [7] | SMILES | Ki [4] | Ki [8] | Ki [9] | Ki [10] | Ki [11] | Ki [12] | Ki [13] | Ki [14] | Ki [15] | Ki [16] | Ki [17] | Ki [18] | Ki [19] |
| --- | --- | --- | --- | --- | --- | --- | --- | --- | --- | --- | --- | --- | --- | --- | --- | --- | --- | --- | --- |
| 1010 nM | 2.74 nM | 804 nM | 1780 nM |  |  | c1cc(CN2CCCNCCNCCCNCC2)ccc1CN1CCCNCCNCCCNCC1 [PLERIXAFOR] | > 10000 nM |  |  |  |  |  |  |  |  |  |  |  |  |
| 528 nM | 645 nM |  | 1260 nM | 841 nM | 195 nM | COc1ccc2cc(S(=O)(=O)N[C@H](CC(=O)N[C@H](Cc3ccc(CN4[C@H](C)CCC[C@@H]4C)cc3)C(=O)N(C)C(C)C)c3ccc4c(c3)OCO4)ccc2c1 |  | 495 nM | 63.4 nM |  |  |  |  |  |  |  |  |  |  |

| SMILES | Ki [1] | Ki [2] | Ki [3] | Ki [5] | Ki [6] | Ki [7] | Ki [4] | Ki [8] | Ki [9] | Ki [10] | Ki [11] | Ki [12] | Ki [13] | Ki [14] | Ki [15] | Ki [16] | Ki [17] | Ki [18] | Ki [19] |
| --- | --- | --- | --- | --- | --- | --- | --- | --- | --- | --- | --- | --- | --- | --- | --- | --- | --- | --- | --- |
| NCCc1cn(S(=O)(=O)c2c(Cl)nc3sccn23)c2ccccc12 |  | 1980 nM |  |  |  |  | 1720 nM | 1320 nM | 675 nM | 1260 nM | 562 nM | 662 nM | 216 nM | 1100 nM | 1430 nM | 4880 nM | 1650 nM | 153 nM | 111 nM |
